The values that follow come from publication PMC8521618 (ACS Medicinal Chemistry Letters, 2021).

A short description of the data set: Pharmacokinetics in mice. The conditions noted are these: for Vd: Vss, PK parameters (mouse).
Where [1] appears, read: CD1, mouse, in vivo, iv, 1 mg/kg, Table 3.

For the compound `CC(=O)N(C)C1CCN(c2cc(F)cc(NC(=O)c3cc4c(F)ccc(C)c4[nH]3)c2)C1` (stereo not drawn) [Compound 25, 4-fluoro-N-[3-fluoro-5-[3-(N-methylacetamido)pyrrolidin-1-yl]phenyl]-7-methyl-1H-indole-2-carboxamide], the volume of distribution (Vd) (usually the apparent volume that relates the amount in the body to the concentration in plasma or blood) under setting [1] is 1.04 L/kg. Further, under “mouse, 50 mpk”, the “estimated Fa” value is on record as <0.01 (50 mpk).
Turning to `Cc1ccc(F)c2cc(C(=O)N[C@@H]3CCC[C@H](N4CC[C@H](N(C)S(C)(=O)=O)C4)C3)[nH]c12` [Compound 32], the Vd under setting [1] was determined as 8.13 L/kg. Moreover, for the setting “CD1, mouse, in vivo, iv, 1 mg/kg, terminal t1/2, PK parameters (mouse), Table 3”, the half-life (usually the time in which the quantity being followed falls by half) was 3.13 h. The compound further showed a fraction absorbed (mouse, 10 mpk, 0.5% CMC/0.1% Tween80) of 0.6. For the same compound, the “estimated Fa” value (mouse, 30 mpk) is recorded as 0.7 (30 mpk).
